Values of other authors as cited in patent US20190069585A1, “Compositions of micronutrients and phytochemicals for optimal human health” (priority 2017, published 2019).

Conditions: consumed orally by humans

For `N[C@@H](CCC(=O)N[C@@H](CS)C(=O)NCC(=O)O)C(=O)O` [glutathione], the “plasma levels of glutathione” value is given as “do not significantly increase”.
